Measurements reported in patent US20180353501A1 (Arvinas, Inc., priority 2017, published 2018).
Like-named read-outs stand apart in the source and are kept apart here.

Tests used:
[1] = molecular target: T1, p38α (Homo sapiens, UniProt Q16539); assay: Western blot survey of p38 isoform degradation in MDA-MB-231 cells (incl. proteasome rescue, CHX chase, washout); type: cell-based; details: for Dmax: read-out: p38α Dmax (maximum percentage of degradation achieved)
T1 construct: selectively degrades p38α, whereas exemplary PROTAC 46 (10-atom linker, phenyl attachment) selectively degrades p38δ in MDA-MB-231 cells; endogenous in cells; host or cells: MDA-MB-231
T1 sequence (Q16539 whole entry, canonical isoform): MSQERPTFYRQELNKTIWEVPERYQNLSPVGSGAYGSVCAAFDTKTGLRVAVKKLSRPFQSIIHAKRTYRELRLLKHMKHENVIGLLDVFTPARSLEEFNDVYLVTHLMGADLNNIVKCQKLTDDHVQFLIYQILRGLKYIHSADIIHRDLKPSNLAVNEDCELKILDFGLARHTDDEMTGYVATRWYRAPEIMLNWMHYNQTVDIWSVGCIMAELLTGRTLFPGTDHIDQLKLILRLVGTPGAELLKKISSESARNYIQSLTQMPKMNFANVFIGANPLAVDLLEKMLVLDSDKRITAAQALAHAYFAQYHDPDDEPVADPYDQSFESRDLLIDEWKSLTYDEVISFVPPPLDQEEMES
Protocol: (§1) FIGS. 11A and 11B. Survey of p38 isoform degradation with foretinib-based VHL PROTACs (related to FIGS. 9A-9C and Table 13). (A) Western blots of amide series PROTACs tested in increasing concentrations (0.025, 0.100, 0.250, 1.0, 5.0 μM) on MDA-MB-231 cells, in duplicate. (B) Same as in (A) but with the phenyl series PROTACs. Summary table of the DC50 (concentration at which half-maximal degradation is achieved) and Dmax (maximum percentage of degradation achieved) is reported, per exemplary PROTAC, in Table 13.
(§2) FIGS. 13A, 13B, 13C, and 13D. Exemplary compounds 50 and 46 degrade p38 isoforms in a manner that is rapid, sustained, and proteasome-dependent. (A) MDA-MB-231 cells were either pre-treated or not with the proteasome inhibitor epoxomicin (1 μM) or the neddylation inhibitor MLN4924 (1 μM) for 30 minutes and subsequently treated with either vehicle (DMSO), exemplary compound 50 (250 nM), or exemplary compound 46 (250 nM) for 6 hours. (B) Quantitative real-time PCR was performed after 24 hours of treatment with either vehicle (DMSO), exemplary compound 50 (250 nM), or exemplary compound 46 (250 nM) in MDAMB-231 cells. The dotted line represents DMSO-treated conditions standardized to a value of 1.0 and mRNA abundance (per treatment group) is represented as a foldchange relative to that value. Data is based on biological duplicates and is normalized to beta-tubulin. (C) Cycloheximide (CHX) chase assay. MDA-MB-231 cells were pre-treated with 100 μg/mL CHX for 1 hour prior to treating for the indicated times with either vehicle (DMSO), exemplary compound 50 (250 nM), or exemplary compound 46 (250 nM). Tubulin-normalized p38α and p38δ abundance values are reported beneath individual lanes. (D) MDA-MB231 cells were treated with either vehicle (DMSO), exemplary compound 50 (250 nM), or exemplary compound 46 (250 nM) for 24 hours before re-plating onto new plastic in fresh medium for an additional 24, 48, or 72 hours (“washout” conditions).
(§3) Cell culture. MDA-MB-231 and HeLa cells were obtained from the American Type Culture Collection (ATCC), cultured in RPMI-1640 (1×) and DMEM (1×) medium, respectively, containing 10% fetal bovine serum (FBS) and 1% penicillin-streptomycin and grown in a humidified incubator at 37° C. and 5% CO2.
(§4) Lysates from MDA-MB-231 cells were washed once with ice cold PBS (1×), followed by lysis in buffer containing 25 mM Tris [pH 7.5], 0.25% sodium deoxycholate, 1% Triton X-100, supplemented with 1× protease inhibitor cocktail (Roche) and phosphatase inhibitors (10 mM NaF, 1 mM Na3VO4, and 20 mM β-glycerophosphate), unless otherwise noted. Lysates were spun at 14,000×g for 10 minutes at 4° C. and supernatant was evaluated for protein content using a Pierce BCA Protein Assay (Thermo Fisher Scientific). 25 to 50 μg of protein was loaded onto 10% SDS-PAGE gels or 4-20% Criterion TGX precast gradient gels (Bio-Rad), transferred to nitrocellulose membranes, and probed with the specified antibodies overnight at 4° C. in 1×TBS-Tween (Tris buffered saline plus 0.02% Tween 20) containing 5% non-fat milk. Immunoblots were visualized using a Bio-Rad ChemiDoc imaging instrument and subsequently processed and quantified using the accompanying Bio-Rad ImageLab software.
(§5) MDA-MB-231 cells were plated at 3×10^5 cells per well in a 6-well dish, allowed to adhere overnight, and switched to serum-free RPMI-1640 (1×) media for 16 hours. Cells were then pre-treated with cycloheximide (Sigma) at 100 μg mL^−1 for 1 hour prior to adding either vehicle (DMSO) or PROTAC (250 nM). At the indicated timepoints, cells were immediately placed on ice, rinsed with 1×PBS, lysed, and boiled.
(§6) MDA-MB-231 cells were plated at 1.5×10^5 cells per well in a 6-well dish and allowed to adhere overnight. On the following day, all cells were treated with either vehicle (DMSO) or PROTAC (250 nM). […]

[2] = molecular target: T2, p38δ (Homo sapiens, UniProt O15264); assay: as above; type: cell-based
T2 construct: endogenous in cells; host or cells: MDA-MB-231 (intact cells for degradation; cleared cell lysate for CETSA)
T2 sequence (O15264 1-365): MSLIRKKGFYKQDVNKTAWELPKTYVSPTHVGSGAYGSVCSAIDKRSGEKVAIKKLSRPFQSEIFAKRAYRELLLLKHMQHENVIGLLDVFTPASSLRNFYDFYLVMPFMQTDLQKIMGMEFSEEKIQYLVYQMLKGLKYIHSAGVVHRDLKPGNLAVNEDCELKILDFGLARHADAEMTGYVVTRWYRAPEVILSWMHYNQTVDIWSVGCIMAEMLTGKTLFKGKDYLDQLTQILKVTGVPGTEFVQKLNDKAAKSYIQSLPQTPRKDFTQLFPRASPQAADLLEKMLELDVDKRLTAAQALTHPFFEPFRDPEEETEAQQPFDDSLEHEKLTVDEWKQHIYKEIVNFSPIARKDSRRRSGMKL
Protocol: as §1, §2, §3, §4, §5, §6

[3] = MDA-MB-231 cells, western blot, read-out: p38α DC50 (concentration at which half-maximal degradation is achieved)
[4] = 250 nM 24 hours, then re-plated without compound
[5] = 250 nM PROTAC 6 hours, pre-treated 1 μM epoxomicin or 1 μM MLN4924

Row | SMILES | DC50 [1, 3] [nM] | Dmax ([1]; MDA-MB-231 cells, western blot) [%] | DC50 ([2]; MDA-MB-231 cells, western blot) [nM] | Dmax ([2]; MDA-MB-231 cells, western blot) [%] | DC50 ([1]; MDA-MB-231 cells, western blot, read-out: p38α DC50) [nM] | p38δ degradation efficacy maintained post-washout [2, 4] [h] | rescue of p38δ downregulation by proteasome / neddylation inhibitor [2, 5] | p38δ Dmax ([2]; MDA-MB-231 cells, western blot) | p38α degradation efficacy maintained post-washout [1, 4] [h] | rescue of p38α downregulation by proteasome / neddylation inhibitor [1, 5] | p38α Dmax (maximum percentage of degradation achieved) ([1]; MDA-MB-231 cells, western blot)
1 | COc1cc2c(Oc3ccc(NC(=O)C4(C(=O)Nc5ccc(F)cc5)CC4)cc3F)ccnc2cc1OCCCOCCCOCCC(=O)N[C@H](C(=O)N1C[C@H](O)C[C@H]1C(=O)NCc1ccc(-c2scnc2C)cc1)C(C)(C)C [Example 1] | 230 | 83 | > 5000 | 42 | – | – | – | – | – | – | –
2 | COc1cc2c(Oc3ccc(NC(=O)C4(C(=O)Nc5ccc(F)cc5)CC4)cc3F)ccnc2cc1OCCOCCOCCOc1cc(-c2scnc2C)ccc1CNC(=O)[C@@H]1C[C@@H](O)CN1C(=O)[C@H](C(C)C)N1Cc2ccccc2C1=O [compound 46] | – | 35 | 79.2 ± 28 | 98.4 | > 5000 | 24 | completely rescued | Dmax = 98.4% | – | – | –
3 | COc1cc2c(Oc3ccc(NC(=O)C4(C(=O)Nc5ccc(F)cc5)CC4)cc3F)ccnc2cc1OCCCCOCCCCOCC(=O)N[C@H](C(=O)N1C[C@H](O)C[C@H]1C(=O)NCc1ccc(-c2scnc2C)cc1)C(C)(C)C [compound 50, N-(3-fluoro-4-((7-(4-(4-(2-(((S)-1-((2S,4R)-4-hydroxy-2-((4-(4-methylthiazol-5-yl)benzyl)carbamoyl)pyrrolidin-1-yl)-3,3-dimethyl-1-oxobutan-2-yl)amino)-2-oxoethoxy)butoxy)buto-xy)-6-methoxyquinolin-4-yl)oxy)phenyl)-N-(4-fluorophenyl)cyclopropane-1,1-dicarboxa-mide] | 9.5 ± 1 | 99.6 | > 5000 | 18.5 | – | – | – | – | 72 | completely rescued | Dmax = 99.6%
